# Data: the supplement of paper PMC10307832
# Legend:
# Test in all cases: relative viability (nuclei count vs DMSO), 5 days (fraction); higher = more cells survive
# NCI-H23 = test system: NCI-H23
# Summary of the method: (§1)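 Relative viability equals treated-well nuclei counts divided by vehicle-well nuclei counts. Counts came from 4× images of lung cancer cell lines grown in 1536-well plates for 5 days after pin-tool dosing on the day after seeding. Dosing used one drug alone or a fixed anchor-drug dose plus five library-drug doses (not always all listed) in √10 steps, and values are medians of duplicate plates.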
# SK-LU-1 = test system: SK-LU-1
# Summary of the method: as §1
# LK-2 = test system: LK-2
# Summary of the method: as §1
# LU99A = test system: LU99A
# Summary of the method: as §1
# EKVX = test system: EKVX
# Summary of the method: as §1
# NCI-H322M = test system: NCI-H322M
# Summary of the method: as §1
# RERF-LC-KJ = test system: RERF-LC-KJ
# Summary of the method: as §1
# NCI-H1666 = test system: NCI-H1666
# Summary of the method: as §1
# EMC-BAC-2 = test system: EMC-BAC-2
# Summary of the method: as §1
# NCI-H1975 = test system: NCI-H1975
# Summary of the method: as §1
# EPLC-272H = test system: EPLC-272H
# Summary of the method: as §1
# HCC-827 = test system: HCC-827
# Summary of the method: as §1
# SW 1573 = test system: SW 1573
# Summary of the method: as §1
# HCC-78 = test system: HCC-78
# Summary of the method: as §1
# ChaGo-K-1 = test system: ChaGo-K-1
# Summary of the method: as §1
# NCI-H2126 = test system: NCI-H2126
# Summary of the method: as §1
# LXF-289 = test system: LXF-289
# Summary of the method: as §1
# PC-14 = test system: PC-14
# Summary of the method: as §1
# NCI-H2405 = test system: NCI-H2405
# Summary of the method: as §1
compound,measurement,setting,value
O=c1cc(-c2cccc3c2Sc2ccccc2S3)oc(N2CCOCC2)c1 + CC1(C)CCC(c2ccc(Cl)cc2)=C(CN2CCN(c3ccc(C(=O)NS(=O)(=O)c4ccc(N[C@H](CCN5CCOCC5)CSc5ccccc5)c(S(=O)(=O)C(F)(F)F)c4)cc3)CC2)C1 [Navitoclax] (partner 0.5 µM),relative viability,NCI-H23; first compound 0.08 µM,0.829
same,relative viability,NCI-H23; first compound 0.253 µM,1.01
same,relative viability,NCI-H23; first compound 0.8 µM,0.879
same,relative viability,NCI-H23; first compound 2.53 µM,0.725
same,relative viability,NCI-H23; first compound 8 µM,0.884
same,relative viability,SK-LU-1; first compound 0.08 µM,0.684
same,relative viability,SK-LU-1; first compound 0.253 µM,0.924
same,relative viability,SK-LU-1; first compound 0.8 µM,0.787
same,relative viability,SK-LU-1; first compound 2.53 µM,1.02
same,relative viability,SK-LU-1; first compound 8 µM,1.09
same,relative viability,LK-2; first compound 0.08 µM,0.861
same,relative viability,LK-2; first compound 0.253 µM,1.03
same,relative viability,LK-2; first compound 0.8 µM,0.992
same,relative viability,LK-2; first compound 2.53 µM,0.808
same,relative viability,LK-2; first compound 8 µM,1.43
same,relative viability,LU99A; first compound 0.08 µM,0.809
same,relative viability,LU99A; first compound 0.253 µM,0.918
same,relative viability,LU99A; first compound 0.8 µM,0.84
same,relative viability,LU99A; first compound 2.53 µM,0.786
same,relative viability,LU99A; first compound 8 µM,0.958
same,relative viability,EKVX; first compound 0.08 µM,0.975
same,relative viability,EKVX; first compound 0.253 µM,0.998
same,relative viability,EKVX; first compound 0.8 µM,0.888
same,relative viability,EKVX; first compound 2.53 µM,0.954
same,relative viability,EKVX; first compound 8 µM,0.965
same,relative viability,NCI-H322M; first compound 0.08 µM,1.2
same,relative viability,NCI-H322M; first compound 0.253 µM,1.3
same,relative viability,NCI-H322M; first compound 0.8 µM,1.15
same,relative viability,NCI-H322M; first compound 2.53 µM,1.16
same,relative viability,NCI-H322M; first compound 8 µM,1.05
same,relative viability,RERF-LC-KJ; first compound 0.08 µM,0.768
same,relative viability,RERF-LC-KJ; first compound 0.253 µM,0.711
same,relative viability,RERF-LC-KJ; first compound 0.8 µM,0.934
same,relative viability,RERF-LC-KJ; first compound 2.53 µM,0.798
same,relative viability,RERF-LC-KJ; first compound 8 µM,0.856
same,relative viability,NCI-H1666; first compound 0.08 µM,0.988
same,relative viability,NCI-H1666; first compound 0.253 µM,0.976
same,relative viability,NCI-H1666; first compound 0.8 µM,0.952
same,relative viability,NCI-H1666; first compound 2.53 µM,0.868
same,relative viability,NCI-H1666; first compound 8 µM,0.799
same,relative viability,EMC-BAC-2; first compound 0.08 µM,1.3
same,relative viability,EMC-BAC-2; first compound 0.253 µM,1.41
same,relative viability,EMC-BAC-2; first compound 0.8 µM,1.37
same,relative viability,EMC-BAC-2; first compound 2.53 µM,1.2
same,relative viability,EMC-BAC-2; first compound 8 µM,1.35
same,relative viability,NCI-H1975; first compound 0.08 µM,1.2
same,relative viability,NCI-H1975; first compound 0.253 µM,1.4
same,relative viability,NCI-H1975; first compound 0.8 µM,1.35
same,relative viability,NCI-H1975; first compound 2.53 µM,1.16
same,relative viability,NCI-H1975; first compound 8 µM,0.997
same,relative viability,EPLC-272H; first compound 0.08 µM,1.09
same,relative viability,EPLC-272H; first compound 0.253 µM,1.17
same,relative viability,EPLC-272H; first compound 0.8 µM,1.17
same,relative viability,EPLC-272H; first compound 2.53 µM,1.09
same,relative viability,EPLC-272H; first compound 8 µM,1.2
same,relative viability,HCC-827; first compound 0.08 µM,1.05
same,relative viability,HCC-827; first compound 0.253 µM,1.06
same,relative viability,HCC-827; first compound 0.8 µM,1.08
same,relative viability,HCC-827; first compound 2.53 µM,0.998
same,relative viability,HCC-827; first compound 8 µM,1.07
same,relative viability,SW 1573; first compound 0.08 µM,0.999
same,relative viability,SW 1573; first compound 0.253 µM,1.14
same,relative viability,SW 1573; first compound 0.8 µM,1.04
same,relative viability,SW 1573; first compound 2.53 µM,1.12
same,relative viability,SW 1573; first compound 8 µM,1.17
same,relative viability,HCC-78; first compound 0.08 µM,0.806
same,relative viability,HCC-78; first compound 0.253 µM,0.978
same,relative viability,HCC-78; first compound 0.8 µM,0.767
same,relative viability,HCC-78; first compound 2.53 µM,0.779
same,relative viability,HCC-78; first compound 8 µM,0.816
same,relative viability,ChaGo-K-1; first compound 0.08 µM,0.903
same,relative viability,ChaGo-K-1; first compound 0.253 µM,1.04
same,relative viability,ChaGo-K-1; first compound 0.8 µM,1.12
same,relative viability,ChaGo-K-1; first compound 8 µM,1.25
same,relative viability,NCI-H2126; first compound 0.08 µM,0.808
same,relative viability,NCI-H2126; first compound 0.253 µM,0.974
same,relative viability,NCI-H2126; first compound 0.8 µM,0.8
same,relative viability,NCI-H2126; first compound 2.53 µM,0.826
same,relative viability,NCI-H2126; first compound 8 µM,0.849
same,relative viability,LXF-289; first compound 0.08 µM,0.996
same,relative viability,LXF-289; first compound 0.253 µM,1.06
same,relative viability,LXF-289; first compound 0.8 µM,1.03
same,relative viability,LXF-289; first compound 2.53 µM,0.951
same,relative viability,LXF-289; first compound 8 µM,1
same,relative viability,PC-14; first compound 0.08 µM,1.04
same,relative viability,PC-14; first compound 0.253 µM,1.31
same,relative viability,PC-14; first compound 0.8 µM,1.01
same,relative viability,PC-14; first compound 2.53 µM,0.946
same,relative viability,PC-14; first compound 8 µM,1.05
same,relative viability,NCI-H2405; first compound 0.08 µM,0.887
same,relative viability,NCI-H2405; first compound 0.253 µM,0.761
same,relative viability,NCI-H2405; first compound 0.8 µM,0.794
same,relative viability,NCI-H2405; first compound 2.53 µM,0.825
same,relative viability,NCI-H2405; first compound 8 µM,0.78
